Data published in PubChem BioAssay AID2060883 (Molecular Pharmacology Branch, DTP, NCI, 2025).
“And” between values parts separate entries of the source, which are not always exact repeats. Equal entries are not always repeated. Blank lines part the entries; values can stand above or below the molecule they belong to.

System: 843782-103-R-J1-PDC complex spheroid viability
Assay: Anticancer human tumor 843782-103-R-J1-PDC patient-derived lung adenocarcinoma cell line growth inhibition [RAS]
Conditions: for viability, T/C: stronger effect = lower value
In short: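 Tumour cells grown as complex spheroids with HUVEC endothelial cells and mesenchymal stem cells, treated with RAS pathway inhibitor combinations. Each agent spans half-log steps from near clinical Cmax, or 10 microM where Cmax is unknown.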

[1] = curve of first compound, second compound 0.000949 µM
[2] = curve of first compound, second compound 0.003 µM
[3] = curve of first compound, second compound 0.00949 µM
[4] = curve of first compound, second compound 0.03 µM
[5] = curve of first compound, second compound 0.0949 µM
[6] = curve of first compound, second compound 0.3 µM
[7] = second compound 0.000949 µM, first compound 0.00316 µM
[8] = second compound 0.000949 µM, first compound 0.01 µM
[9] = second compound 0.000949 µM, first compound 0.0316 µM
[10] = second compound 0.000949 µM, first compound 0.1 µM
[11] = second compound 0.000949 µM, first compound 0.316 µM
[12] = second compound 0.000949 µM, first compound 1 µM
[13] = second compound 0.003 µM, first compound 0.00316 µM
[14] = second compound 0.003 µM, first compound 0.01 µM
[15] = second compound 0.003 µM, first compound 0.0316 µM
[16] = second compound 0.003 µM, first compound 0.1 µM
[17] = second compound 0.003 µM, first compound 0.316 µM
[18] = second compound 0.003 µM, first compound 1 µM
[19] = second compound 0.00949 µM, first compound 0.00316 µM
[20] = second compound 0.00949 µM, first compound 0.01 µM
[21] = second compound 0.00949 µM, first compound 0.0316 µM
[22] = second compound 0.00949 µM, first compound 0.1 µM
[23] = second compound 0.00949 µM, first compound 0.316 µM
[24] = second compound 0.00949 µM, first compound 1 µM
[25] = second compound 0.03 µM, first compound 0.00316 µM
[26] = second compound 0.03 µM, first compound 0.01 µM
[27] = second compound 0.03 µM, first compound 0.0316 µM
[28] = second compound 0.03 µM, first compound 0.1 µM
[29] = second compound 0.03 µM, first compound 0.316 µM
[30] = second compound 0.03 µM, first compound 1 µM
[31] = second compound 0.0949 µM, first compound 0.00316 µM
[32] = second compound 0.0949 µM, first compound 0.01 µM
[33] = second compound 0.0949 µM, first compound 0.0316 µM
[34] = second compound 0.0949 µM, first compound 0.1 µM
[35] = second compound 0.0949 µM, first compound 0.316 µM
[36] = second compound 0.0949 µM, first compound 1 µM
[37] = second compound 0.3 µM, first compound 0.00316 µM
[38] = second compound 0.3 µM, first compound 0.01 µM
[39] = second compound 0.3 µM, first compound 0.0316 µM
[40] = second compound 0.3 µM, first compound 0.1 µM
[41] = second compound 0.3 µM, first compound 0.316 µM
[42] = second compound 0.3 µM, first compound 1 µM
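Also: viability read after seven days of compound exposure.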

IC50 [1]: 296 nM
IC50 [2]: 28.9 nM
IC50 [3]: < 3.16 nM
IC50 [4]: < 3.16 nM
IC50 [5]: < 3.16 nM
IC50 [6]: < 3.16 nM
Compound: C=CC(=O)Nc1cc(Nc2nccc(-c3cn(C)c4ccccc34)n2)c(OC)cc1N(C)CCN(C)C + CCn1c(-c2cc(N3CCN(C)CC3)cnc2C(C)OC)c2c3cc(ccc31)-c1csc(n1)CC(NC(=O)C1CC1C)C(=O)N1CCCC(N1)C(=O)OCC(C)(C)C2
viability, T/C [7]: 81.5%
viability, T/C [8]: 69%
viability, T/C [9]: 71.1%
viability, T/C [10]: 56.2%
viability, T/C [11]: 49.4%
viability, T/C [12]: 41.3%
viability, T/C [13]: 60.1%
viability, T/C [14]: 55.5%
viability, T/C [15]: 50%
viability, T/C [16]: 41%
viability, T/C [17]: 33.9%
viability, T/C [18]: 30.2%
viability, T/C [19]: 34.9%
viability, T/C [20]: 32.6%
viability, T/C [21]: 32.1%
viability, T/C [22]: 25.7%
viability, T/C [23]: 26.9%
viability, T/C [24]: 18.3%
viability, T/C [25]: 18.6%
viability, T/C [26]: 19.4%
viability, T/C [27]: 17.6%
viability, T/C [28]: 16.9%
viability, T/C [29]: 17.6%
viability, T/C [30]: 14.2%
viability, T/C [31]: 17.8%
viability, T/C [32]: 13.2%
viability, T/C [33]: 13.7%
viability, T/C [34]: 15.4%
viability, T/C [35]: 14%
viability, T/C [36]: 12.8%
viability, T/C [37]: 13.8%
viability, T/C [38]: 13.2%
viability, T/C [39]: 10.6%
viability, T/C [40]: 11.8%
viability, T/C [41]: 13.6%
viability, T/C [42]: 10.4%

IC50 [1]: > 1000 nM
IC50 [2]: > 1000 nM
IC50 [3]: > 1000 nM
IC50 [4]: > 1000 nM
IC50 [5]: > 1000 nM
IC50 [6]: > 1000 nM
Compound: C=CC(=O)N1CCN(c2nc(OCC3CCCN3C)nc3c(F)c(-c4nc(N)cc(C)c4C(F)(F)F)c(Cl)cc23)C(C)C1 (stereo not given) + CCn1c(-c2cccnc2C(C)OC)c2c3cc(ccc31)N1CCOC(CC(NC(=O)C(C(C)C)N(C)C(=O)C3(F)CCN(C(=O)C#CC(C)(C)N(C)C)CC3)C(=O)N3CCCC(N3)C(=O)OCC(C)(C)C2)C1
viability, T/C [7]: 80.5%
viability, T/C [8]: 67.2%
viability, T/C [9]: 75.9%
viability, T/C [10]: 77.9%
viability, T/C [11]: 72.8%
viability, T/C [12]: 78.5%
viability, T/C [13]: 71.4%
viability, T/C [14]: 69.3%
viability, T/C [15]: 77.7%
viability, T/C [16]: 81.6%
viability, T/C [17]: 78.3%
viability, T/C [18]: 74.4%
viability, T/C [19]: 63.6%
viability, T/C [20]: 62.4%
viability, T/C [21]: 77.5%
viability, T/C [22]: 80.1%
viability, T/C [23]: 88.1%
viability, T/C [24]: 74.4%
viability, T/C [25]: 82.4%
viability, T/C [26]: 71.6%
viability, T/C [27]: 71.5%
viability, T/C [28]: 75.4%
viability, T/C [29]: 82.5%
viability, T/C [30]: 69.4%
viability, T/C [31]: 81.6%
viability, T/C [32]: 75.9%
viability, T/C [33]: 77.6%
viability, T/C [34]: 79.7%
viability, T/C [35]: 77.7%
viability, T/C [36]: 77%
viability, T/C [37]: 65.4%
viability, T/C [38]: 69.2%
viability, T/C [39]: 61.2%
viability, T/C [40]: 70.7%
viability, T/C [41]: 68%
viability, T/C [42]: 69.6%

IC50 (curve of compound): > 1000 nM and 906 nM
Compound: CCN1CCN(Cc2ccc(Nc3ncc(F)c(-c4cc(F)c5nc(C)n(C(C)C)c5c4)n3)nc2)CC1
viability, T/C (compound 0.00316 µM): 105% [middle of 4 runs]
viability, T/C (compound 0.01 µM): 97.8% [middle of 4 runs]
viability, T/C (compound 0.0316 µM): 99.3% [middle of 4 runs]
viability, T/C (compound 0.1 µM): 102% (2×) and 90.9% and 101%
viability, T/C (compound 0.316 µM): 95.1% [middle of 4 runs]
viability, T/C (compound 1 µM): 70% [middle of 4 runs]

The next lines start with the molecule.

Compound: CCc1c2c(nc3ccc(O)cc13)-c1cc3c(c(=O)n1C2)COC(=O)[C@]3(O)CC + C#Cc1c(F)ccc2cc(O)cc(-c3ncc4c(N5CC6CCC(C5)N6)nc(OCC56CCCN5CC(F)C6)nc4c3F)c12
IC50 (curve of first compound, second compound 0.0316 µM): 1.91 nM
IC50 (curve of first compound, second compound 0.1 µM): 2 nM
IC50 (curve of first compound, second compound 0.316 µM): 1.95 nM
IC50 (curve of first compound, second compound 1 µM): 1.91 nM
IC50 (curve of first compound, second compound 3.16 µM): 1.62 nM
IC50 (curve of first compound, second compound 10 µM): < 0.949 nM
viability, T/C (second compound 0.0316 µM, first compound 0.000949 µM): 103%
viability, T/C (second compound 0.0316 µM, first compound 0.003 µM): 15.3%
viability, T/C (second compound 0.0316 µM, first compound 0.00949 µM): 8.79%
viability, T/C (second compound 0.0316 µM, first compound 0.03 µM): 2.87%
viability, T/C (second compound 0.0316 µM, first compound 0.0949 µM): 1.58%
viability, T/C (second compound 0.0316 µM, first compound 0.3 µM): 0.53%
viability, T/C (second compound 0.1 µM, first compound 0.000949 µM): 104%
viability, T/C (second compound 0.1 µM, first compound 0.003 µM): 19.6%
viability, T/C (second compound 0.1 µM, first compound 0.00949 µM): 8.39%
viability, T/C (second compound 0.1 µM, first compound 0.03 µM): 4.21%
viability, T/C (second compound 0.1 µM, first compound 0.0949 µM): 1.08%
viability, T/C (second compound 0.1 µM, first compound 0.3 µM): 0.68%
viability, T/C (second compound 0.316 µM, first compound 0.000949 µM): 96.8%
viability, T/C (second compound 0.316 µM, first compound 0.003 µM): 20.8%
viability, T/C (second compound 0.316 µM, first compound 0.00949 µM): 8.99%
viability, T/C (second compound 0.316 µM, first compound 0.03 µM): 3.62%
viability, T/C (second compound 0.316 µM, first compound 0.0949 µM): 1.15%
viability, T/C (second compound 0.316 µM, first compound 0.3 µM): 0.74%
viability, T/C (second compound 1 µM, first compound 0.000949 µM): 85.5%
viability, T/C (second compound 1 µM, first compound 0.003 µM): 26.8%
viability, T/C (second compound 1 µM, first compound 0.00949 µM): 7.99%
viability, T/C (second compound 1 µM, first compound 0.03 µM): 3.68%
viability, T/C (second compound 1 µM, first compound 0.0949 µM): 1.44%
viability, T/C (second compound 1 µM, first compound 0.3 µM): 0.87%
viability, T/C (second compound 3.16 µM, first compound 0.000949 µM): 73.4%
viability, T/C (second compound 3.16 µM, first compound 0.003 µM): 21.8%
viability, T/C (second compound 3.16 µM, first compound 0.00949 µM): 10.4%
viability, T/C (second compound 3.16 µM, first compound 0.03 µM): 4.24%
viability, T/C (second compound 3.16 µM, first compound 0.0949 µM): 1.56%
viability, T/C (second compound 3.16 µM, first compound 0.3 µM): 0.77%
viability, T/C (second compound 10 µM, first compound 0.000949 µM): 42.2%
viability, T/C (second compound 10 µM, first compound 0.003 µM): 12.1%
viability, T/C (second compound 10 µM, first compound 0.00949 µM): 9.81%
viability, T/C (second compound 10 µM, first compound 0.03 µM): 3.11%
viability, T/C (second compound 10 µM, first compound 0.0949 µM): 1.08%
viability, T/C (second compound 10 µM, first compound 0.3 µM): 0.39%

Compound: NC1c2ccccc2OC12CCN(c1cnc3c(N4CCCc5ncccc54)n[nH]c3n1)CC2 (stereo not given)
viability, T/C (compound 3.16 µM): 51.5% [middle of 4 runs]
viability, T/C (compound 10 µM): 34.7% [middle of 4 runs]
